Experiments:
Type in all cases: functional, cell-based
Calu-1 = test: SANGER: Inhibition of human Calu-1 cell growth in a cell viability assay.
Caov-3 cell line = test: cells; conditions: Homo sapiens;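 also: cell growth inhibition read out by a viability assay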
Description: SANGER: Inhibition of human Caov-3 cell growth in a cell viability assay.

Caov-4 = test: cells; conditions: Homo sapiens
Description: SANGER: Inhibition of human Caov-4 cell growth in a cell viability assay.

DMS-53 = test: cells; conditions: Homo sapiens;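 also: cell viability assay measuring growth inhibition of human DMS-53 cells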
Description: SANGER: Inhibition of human DMS-53 cell growth in a cell viability assay.

ECC12 = test: cells; conditions: Homo sapiens
Description: SANGER: Inhibition of human ECC12 cell growth in a cell viability assay.

EFE-184 = test: cells; conditions: Homo sapiens
Description: SANGER: Inhibition of human EFE-184 cell growth in a cell viability assay.

EW-7 = test: SANGER: Inhibition of human EW-7 cell growth in a cell viability assay.
HCC1143 = test: cells; conditions: Homo sapiens;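 also: growth inhibition of human HCC1143 cells, read out with a cell viability assay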
Description: SANGER: Inhibition of human HCC1143 cell growth in a cell viability assay.

IPC-298 = test: SANGER: Inhibition of human IPC-298 cell growth in a cell viability assay.
MDA-MB-468 = test: cells; conditions: Homo sapiens
Description: SANGER: Inhibition of human MDA-MB-468 cell growth in a cell viability assay.

MES-SA = test: cells; conditions: Homo sapiens;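 also: growth inhibition of human MES-SA cells, read out with a cell viability assay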
Description: SANGER: Inhibition of human MES-SA cell growth in a cell viability assay.

MFE-296 = test: SANGER: Inhibition of human MFE-296 cell growth in a cell viability assay.
NCI-H1734 = test: cells; conditions: Homo sapiens;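 also: growth inhibition of human NCI-H1734 cells, read out with a cell viability assay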
Description: SANGER: Inhibition of human NCI-H1734 cell growth in a cell viability assay.

NCI-H2227 = test: cells; conditions: Homo sapiens;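 also: growth inhibition of the human cell line, read out with a cell viability assay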
Description: SANGER: Inhibition of human NCI-H2227 cell growth in a cell viability assay.

NCI-H838 = test: cells; conditions: Homo sapiens;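 also: growth inhibition of human NCI-H838 cells, read out by a cell viability assay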
Description: SANGER: Inhibition of human NCI-H838 cell growth in a cell viability assay.

PLC-PRF-5 = test: cells; conditions: Homo sapiens;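 also: growth inhibition of human PLC-PRF-5 cells, read out with a viability assay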
Description: SANGER: Inhibition of human PLC-PRF-5 cell growth in a cell viability assay.

RL95-2 = test: cells; conditions: Homo sapiens;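 also: RL95-2 growth inhibition determined through a cell viability readout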
Description: SANGER: Inhibition of human RL95-2 cell growth in a cell viability assay.

RT-4 = test: SANGER: Inhibition of human RT4 cell growth in a cell viability assay.
SK-CO-1 = test: cells; conditions: Homo sapiens;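 also: growth inhibition of SK-CO-1 cells, determined by a viability readout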
Description: SANGER: Inhibition of human SK-CO-1 cell growth in a cell viability assay.

SNG-M = test: cells; conditions: Homo sapiens
Description: SANGER: Inhibition of human SNG-M cell growth in a cell viability assay.

SNU-475 = test: cells; conditions: Homo sapiens
Description: SANGER: Inhibition of human SNU-475 cell growth in a cell viability assay.

C-4-II = test: SANGER: Inhibition of human C-4-II cell growth in a cell viability assay.
TT = test: cells; conditions: Homo sapiens
Description: SANGER: Inhibition of human TT cell growth in a cell viability assay.

CCF-STTG1 = test: cells; conditions: Homo sapiens;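 also: growth inhibition of human CCF-STTG1 cells, determined with a cell viability read-out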
Description: SANGER: Inhibition of human CCF-STTG1 cell growth in a cell viability assay.

COLO 205 = test: cells; conditions: Homo sapiens
Description: SANGER: Inhibition of human COLO-205 cell growth in a cell viability assay.

Question: For CC(C)=CC[C@@H](O)C1=CC(=O)c2c(O)ccc(O)c2C1=O [SHIKONIN], which IC50 (Calu-1) is on record?
Answer: 1230 nM

Question: And the IC50 (Caov-3 cell line)?
Answer: 767 nM

Question: What about the IC50 (Caov-4) of the same compound?
Answer: 1880 nM

Question: What about the IC50 (DMS-53) of the same compound?
Answer: > 16 µM

Question: And the IC50 (ECC12)?
Answer: 9.65 µM

Question: And the IC50 (EFE-184)?
Answer: 544 nM

Question: What about the IC50 (EW-7) of the same compound?
Answer: 1290 nM

Question: What about the IC50 (HCC1143) of the same compound?
Answer: 530 nM

Question: And the IC50 (IPC-298)?
Answer: > 16 µM

Question: What about the IC50 (MDA-MB-468) of the same compound?
Answer: 967 nM

Question: And the IC50 (MES-SA)?
Answer: 41.3 nM

Question: And the IC50 (MFE-296)?
Answer: 662 nM

Question: And the IC50 (NCI-H1734)?
Answer: 6.9 µM

Question: What about the IC50 (NCI-H2227) of the same compound?
Answer: 4.89 µM

Question: What about the IC50 (NCI-H838) of the same compound?
Answer: > 16 µM

Question: And the IC50 (PLC-PRF-5)?
Answer: 1820 nM

Question: What about the IC50 (RL95-2) of the same compound?
Answer: 720 nM

Question: And the IC50 (RT-4)?
Answer: 10.1 µM

Question: And the IC50 (SK-CO-1)?
Answer: 2050 nM

Question: And the IC50 (SNG-M)?
Answer: 272 nM

Question: And the IC50 (SNU-475)?
Answer: 14.1 µM

Question: What about the IC50 (C-4-II) of the same compound?
Answer: 588 nM

Question: And the IC50 (TT)?
Answer: 1700 nM

Question: And the IC50 (CCF-STTG1)?
Answer: 768 nM

Question: And the IC50 (COLO 205)?
Answer: 538 nM

Reference: ChEMBL document CHEMBL1201861, “Genomics of Drug Sensitity in Cancer screening data, Wellcome Trust Sanger Institute”
